Data reported in US20130274834A1, “Method for the treatment of skin tissues” (priority 2006, published 2013).
“And” between values parts separate entries of the source, which are not always exact repeats. Identical values can stand only once. “Also recorded” adds a separate entry of the source.

How the values were obtained:
Format in all cases: in vivo, human
[1] = tested on: cystic acne lesions; assay: Split face or split back pre-PDT radiant IR study, eleven cystic acne patients (Example 7); conditions: one month after PDT; IR 970 nm 50 mW/cm2 15 min prior to 5-ALA; most patients
Protocol: Study Design/Materials and Methods: Eleven (11) patients were enrolled in a split face or split back (pre-treated side versus control) study with a pre-approved IRB protocol. […] Lesion count was assessed both manually and by digital photography before and 4 weeks after one PDT procedure. Prior to the application of 5-ALA, one side of the face or back was pre-treated with radiant IR [CW LEDs emitting @ λ970 nm, irradiance 50 mW/cm2 for 15 minutes, total fluence 45 J/cm2], while the other half was used as control. PDT was then performed on the entire surface (face or back).

[2] = tested on: facial papulo-pustular inflammatory acne lesions; assay: Split-face radiant IR skin preparation prior to PDT for inflammatory type acne of the face (Example 6); conditions: untreated side (no IR); one month later
Protocol: A person was treated for facial papulo-pustular inflammatory acne lesions. After performing an acetone scrub on the treatment area, a radiant IR skin preparation was done on the right side of their face (970 nm, 80 mW/cm2, for 30 min). Then 5-aminolevulinic acid (Levulan™ Kerastick™) was applied to the skin and left for 90 min incubation time. […] Radiant IR skin preparation allows for a reduction in the number of PDT treatments necessary for significant clinical improvements.

[3] = tested on: inflammatory acne lesions; assay: Randomized, controlled, rater-blinded split face/back trial of IR pre-treatment plus ALA-PDT in inflammatory acne (Example 9); set-up: key to Clinical Global Severity Assessment at Week-4, Median: 0: Clear; 1: Almost clear; 2: Mild; 3: Moderate; 4: Severe; 5: Very Severe; conditions: for Clinical Global Severity Assessment at Week-4, Median: six-point rating scale, grade 0-5; for Change from Baseline in Lesion Counts, Total Inflammatory lesions, Median (reduction): week-4 (one month after PDT)
Protocol: One side was pre-treated for 15 minutes with radiant IR light emitting diode (LED) (970 nm), while the other side was used as control. ALA was then applied after which PDT LED (630 nm) was performed on the entire face or back surface. Blinded lesion counts and clinical global assessment of severity were performed based on digital photographs before and four weeks after the PDT procedure.
Inclusion criteria included patients with skin type I to III according to the Fitzpatrick Classification System [^xxviii]. Exclusion criteria comprised patients taking cortisone (Prednisone), anticoagulant therapy, or any drug known to increase photosensitivity. In addition, during the 12 months preceding the study, patients were required not to have used isotretinoin (Accutane), or applied topical steroids on the site to be treated. Moreover, oral antibiotics use, laser or topical anti-acne medication at the to-be-treated site were not permitted for eight weeks prior to the study. Patients gave written informed consent to participate in this trial in compliance with the US Code of Federal Regulations dealing with the conduct of clinical studies (21 CFR including parts 50 and 56 concerning informed consent and IRB regulations). The study was conducted according to Good Clinical Practice Guidelines and the principles of the Declaration of Helsinki, and was approved by the Institutional Review Board Services (Div. 1373737 Toronto, Canada).
Patients were assigned to a split face or split back group to allow for within-patient assessments of clinical effects. Assignment was based on the patient's problem area. One side was randomly (using a coin flip) assigned to receive IR pre-treatment and ALA-PDT, and the other ALA-PDT alone to serve as control. The IR pre-treatment consisted of a 15 minute exposure to radiant IR LED at 970 nm ([…] using the LumiPhase-R/IR™, OPUSMED Inc. Montreal, Canada) to reach peak H2O absorption inside-out temperature of 45° C. Papillary dermis temperature was monitored with a needle probe throughout the session and up to 40 minutes (Type-T thermocouple, Omega, Montreal, Canada). ALA (20% Levulan Kerastick, DUSA Pharmaceuticals, USA) was then applied on both sides for 60 minutes, after which PDT with LED at 630 nm (50 mW/cm^2, 70 J/cm^2) was performed on the entire face or back surface for a duration of 23 minutes (LumiPhase-R/B™, OPUSMED Inc. Montreal, Canada). No cooling method was used. Digital photographs (Canon Dual Flash EOS 10D, Canon, Tokyo, Japan with EX SIGMA 50 mm 1:2.8 macro lens, Sigma, Aizu, Japan) were taken prior to and four weeks after the procedure. Each photograph was taken maintaining identical ambient lighting, pose and camera angles.
Acne lesion counts were performed before and four weeks after the PDT treatment. All types of inflammatory (papules, pustules, nodules) and noninflammatory (open and closed comedones) acne lesions were counted. Lesion counts were performed based on the digital photographs by two non-treating physicians who were blinded to the treatment regimen (IR-treated or control side) and to the timing of the photographs (baseline or post-treatment).
The global severity of acne was assessed at the end of the study by the […] non-treating physicians, as described above, using a six-point rating scale (Table 1). Clinical success was defined by grades 0 (clear) or 1 (almost clear).
Adverse reactions were monitored throughout the study. Signs of erythema, oedema, scaling/crusting, bronzing, textural changes, hyperpigmentation, and hypopigmentation were documented during the time period of the clinical trial.
Cronbach's alpha was calculated to assess inter-rater reliability in assessments. Reliability was deemed acceptable if Cronbach alpha was ≧7 allowing raters' assessments to be combined for analysis. The primary outcome variable was the percent change from baseline in inflammatory lesion count measured four weeks post-treatment. […]

## NCC(=O)CCC(=O)O [5-aminolevulinic acid]
[1]
  number of cystic lesions, pre-treated versus control side: statistically significant decrease
[2]
  PDT sessions needed for similar results: needed an additional PDT session
[3]; ALA-PDT with LED 630 nm, with or without IR pre-treatment, listed as ALA
  tolerability of the treatment: overall well tolerated; also recorded: well tolerated with no significant adverse events
[3]; ALA-PDT with or without IR pre-treatment
  treatment-related adverse effects: No unusual treatment-related adverse effects were observed
[3]; Control side (ALA-PDT alone)
  Clinical Global Severity Assessment at Week-4, Median: 2
[3]; Control side (ALA-PDT alone), listed as ALA
  Change from Baseline in Lesion Counts, Total Inflammatory lesions, Median (reduction): 38% and 37.86%
[3]; IR-Treated side
  Clinical Global Severity Assessment at Week-4, Median: 1
[3]; IR-Treated side, listed as ALA
  Change from Baseline in Lesion Counts, Total Inflammatory lesions, Median (reduction): 73% and 73.21%
[3]; IR-treated versus control side, week-4
  additional benefit of IR-treated side in reduction of inflammatory lesion count: 35%
[3]; most patients
  time to disappearance of slight erythema post-PDT: ≤ 48 h
